Assay results taken from patent US6117849A, “S-(+)-adenosylmethionine and 3'-azido-2', 3'-dideoxy-nucleoside complexes as potent inhibitors of HIV-replication” (Symbio Herborn Group GmbH & Co., priority 1996, dated 2000).
Several values for one entry are separate records, joined by “and”; a condition that tells them apart may be missing. Equal values may be shown once. Read-outs that look alike come from different tables or passages of the source.

Assays:
[1] = biological target: T1, reverse transcriptase (RT) (HIV-1 M:B_HXB2R, UniProt P04585); assay type: biochemical; design: A2: RT in cord-blood lymphocyte cultures infected with HIV from an AIDS patient; conditions: for Ki: RT
Experimental: The second in-vitro test uses the enzymatic activity of RT, testing the kinetic and inhibitory action of the molecular complexes. The cloning of the RT in biologically active form made it possible to have large quantities of the RT enzyme available for these studies (RT from Sigma, lot # R 9376).
The steady state reaction conditions for RT are chosen that approximate physiological conditions are met: pH 7.45 (37° C.), ionic strength of 150 mM, routinely a buffer was employed consisting of 50 mM TRIS-HCl, 100 mM KCl, 5 mM MgCl2, the addition of 10 μg/mL bovine serum albumin were included. […] The aforementioned precautions designed to avoid potential reduction of SAM in the presence of DTT are taken into accounts to preclude any distortions of the kinetic behavior of the RT enzyme in the presence of the various substrates e.g. as our molecular compounds. […] The enzyme concentrations of RT was approx. 20 nM, T-P (template-primer) […] and 25 μM of [^3 H]-dNTP (assay conditions are modified fro those of Mayunder et al., J. biol. Chem.,263, 15657, 1988). […] In case both parameters are effected to the same extent, then the inhibition is uncompetitive. In order to facilitate the difference between SAM kinetics and those for the molecular complexes we studied first SAM kinetics and subsequently the kinetics in the presence of the molecular complexes. […] Similar experiments have been carries out with dGTP.
The enzyme was assayed with 50 nM primer sites on poly (rA): oligo (dT), and variable concentrations of [^3 H] dTP as substrates in a reaction mixture as described above at pH 7.5 (37° C.).

[2] = system: T-lymphocyte cell cultures; assay: in vitro; conditions: for therapeutic index: in vitro, considering cytotoxicity
Experimental: (§1) Viability of the T cells was determined by means of a tetrazolium salt (MTT) metabolic assay.--(see also: Schwartz, O., et al., AIDS Rcs. Hum. Retroviruses, 4 441-448, 1988).

[3] = biological target: T1, reverse transcriptase (RT); assay type: biochemical; design: A2: RT in cord-blood lymphocyte cultures infected with HIV from an AIDS patient; conditions: no DTT
[4] = in vitro; conditions: t-lymphocyte cultures
Experimental: as §1

[5] = biological target: T1, reverse transcriptase (RT); assay: In vitro RT inhibition assay with F-dUP/F-dU or THF; assay type: biochemical; design: A2: RT in cord-blood lymphocyte cultures infected with HIV from an AIDS patient
[6] = system: HIV-1 isolate of HIV IIB; assay: HIV replication in de novo infected lymphocyte cultures, viral core protein p24 endpoint; assay type: cell-based, HIV-1 (in human peripheral blood lymphocytes)
Experimental: For this purpose, SAM has been tested in a dose response titration ranging from 1000 μg/mL to 10 μg/mL final concentrations for the ability to inhibit HIV replication in de novo infected cells. Endpoint in this assay was the quantitative determination of the concentration of the viral core protein p24 as described by Mueller et al. (Mueller, Ch., Moritz, R., Prigge, G., Weitzel, D., Kunze, R., Kage, A., Koettgen, E., Fresenius Z. Anal. Chem.,330, 352-353, 1988). […] The toxicity testing of cellular proliferation was performed according to J. Mosmann (J. Immunological Methods, 65, 55-63, 1983). […] All experiments were carried out in triplicate cultures, including those for the various concentrations of the molecular complexes tested.--The lymphocytes were infected with a standardized preparation of HIV-1 isolate of HIV IIB. The cells were sedimented by low speed centrifugation, the sediment resuspended in the assay buffer (standard), and the resuspended cells were inoculated by adjusting to the following conditions: 100 ng of viral core protein p24/mL and 3200 pg HIV RNA/mL, respectively. Normally 3×10^8 lymphocytes were suspended in 1 mL if the HIV inoculum, and incubated at 37° C. for 60 minutes. After washing the cells twice with 50 mL of culture medium the cells were resuspended at a concentration of 3×10^6 cells/mL in culture medium which contains 10 units/mL of human recombinant interleukin-2. 100 μL of this cell suspension were added to 100 μL of the pre-diluted solution of the compounds to be tested, without adding any salt or protein. The entire assay was cultivated in humidified atmosphere in the presence of 5% CO2 at 37° C. After the 4th day of infection the viral replication was determined in the lymphocyte cultures. The end point of the titration was the determination of the viral core protein p24 in the supernatant of each of the lymphocyte cultures. 150 μL of the supernatant were removed and transferred to a vial containing 50 μL/well SDS at a final concentration of 0.08% (w/w). The concentration of the synthesized p24 by the HIV infected cells was determined according to Mueller et al., using recombinant p24 as a standard for calibration.

[7] = AZT; cited from earlier work
[8] = in vivo; cited from earlier work
[9] = SAM and AZT levels in HIV-infected patients (plasma, CSF)
[10] = biological target: T1, reverse transcriptase (RT); conditions: read-out: inhibiting concentration, 50% of RT activity; tosylate-bis-sulfate salt, with DTT; cited from earlier work
[11] = system: HIV; assay: HIV replication in T-lymphocyte cell cultures (cytotoxic effect and p24 production); assay type: cell-based
[12] = rapidly dried in vacuo, water-free
[13] = Intracellular metabolism to the triphosphate; assay type: in vitro ADME
[14] = system: bone marrow stem cells; conditions: vs AZT
[15] = Stability / half-life in human plasma (chiral HPLC, fluorescence)
From the text: In order to determine the stability of these complexes in physiological conditions, the half-life times of the compounds were estimated in human plasma after separation on a chiral column and using a HPLC apparatus applying, monitoring the fluorescence of both components at 310 nm (excitation at 278 nm) after complete separation of the two peaks.

[16] = system: IL-β, IL-2; assay: Cytokine biosynthesis after stimulation of lymphocytes; assay type: cell-based; conditions: after phytohemagglutination stimulation
[17] = system: human peripheral blood lymphocytes; assay: Cell toxicity by proliferation test in lymphocyte cultures
Experimental: For this purpose, SAM has been tested in a dose response titration ranging from 1000 μg/mL to 10 μg/mL final concentrations for the ability to inhibit HIV replication in de novo infected cells. Endpoint in this assay was the quantitative determination of the concentration of the viral core protein p24 as described by Mueller et al. (Mueller, Ch., Moritz, R., Prigge, G., Weitzel, D., Kunze, R., Kage, A., Koettgen, E., Fresenius Z. Anal. Chem.,330, 352-353, 1988). […] The toxicity testing of cellular proliferation was performed according to J. Mosmann (J. Immunological Methods, 65, 55-63, 1983). […] All experiments were carried out in triplicate cultures, including those for the various concentrations of the molecular complexes tested.--The lymphocytes were infected with a standardized preparation of HIV-1 isolate of HIV IIB. The cells were sedimented by low speed centrifugation, the sediment resuspended in the assay buffer (standard), and the resuspended cells were inoculated by adjusting to the following conditions: 100 ng of viral core protein p24/mL and 3200 pg HIV RNA/mL, respectively. […] After the 4th day of infection the viral replication was determined in the lymphocyte cultures. […] The concentration of the synthesized p24 by the HIV infected cells was determined according to Mueller et al., using recombinant p24 as a standard for calibration.

[18] = system: mitochondrial DNA replication; conditions: vs AZT
[19] = no DTT, pH 7.45-7.5, 37° C., read-out: KM
[20] = HIV replication, p24, standard conditions
[21] = addition of human serum albumin
[22] = 1 h, complex: 400 mg SAM equivalent 250 mg AZT

Molecule: 3'-azido-2',3'-2'-fluorothymidine [F))/AZT (AZT (2']
- Ki ([1]; no DTT): 100 ± 10 nM
- Km [1, 19]: 0.5 ± 0.01 µM
- therapeutic index [2]: 7.000
- kcat [3]: 0.0483 s⁻¹

Molecule: 3'-azido-2',3'-dideoxyadennine [SAM/AZA]
- Ki ([1]; no DTT): 280 ± 20 nM
- Km [1, 19]: 0.71 ± 0.02 µM
- therapeutic index [2]: 4.500
- kcat [3]: 0.0283 s⁻¹

Molecule: 3'-azido-2',3'-dideoxyguanosine [SAM/AZG]
- Ki ([1]; no DTT): 240 ± 10 nM
- Km [1, 19]: 0.7 ± 0.02 µM
- therapeutic index [2]: 5.700
- kcat [3]: 0.05 s⁻¹

Molecule: 3'-azido-2',3'-dideoxyinosine [SAM/AZI]
- Ki ([1]; no DTT): 130 ± 15 nM
- Km ([1]; read-out: KM): 0.41 ± 0.03 µM
- kcat [3]: 0.035 s⁻¹

Molecule: 3'-azido-2',3'-dideoxyuridine [SAM/AZU]
- Km ([1]; read-out: KM): 0.69 ± 0.015 µM
- kcat [3]: 0.035 s⁻¹

Molecule: C[S+](CC[C@H](N)C(=O)O)C[C@H]1O[C@@H](n2cnc3c(N)ncnc32)[C@H](O)[C@@H]1O (single isomer, unassigned) [SAM C1]
- Km [1]: 0.53 ± 0.02 µM
- kcat [1]: 0.317 s⁻¹ and 0.25 s⁻¹
- selectivity ratio [4]: 2.1

Molecule: c1ncc2c(n1)NCCN2 [5,6,7,8-tetrahydropteridine (THF), 5,6,7,8-tetrahydropteridine]
- effect on inhibition of RT [5]: no significant inhibition of the RT

Molecule: Cc1cn([C@H]2C[C@H](N=[N+]=[N-])[C@@H](CO)O2)c(=O)[nH]c1=O [AZT, 3'-azido-2',3'-deoxythymidine]
- kcat [1]: approx. 1.5 sect^-1
- inhibition of HIV replication ([6]; FIG. 1, p24): inhibited HIV replication in a dose dependent response
- plasma half-life [7]: 1 h
- side effects upon prolonged administration [8]: peripheral neuropathological effects
- toxicity at increased dose [8]: bone marrow toxicity
- Cmax ([9]; human, plasma, 250 mg): 2500 ng/mL

Molecule: O=c1[nH]c(=O)n([C@H]2C[C@H](O)[C@@H](CO)O2)cc1F [F-dU]
- effect on inhibition of RT [5]: no influence on the inhibition of RT

Molecule: [3H]C12CNc3nc(N)[nH]c(=O)c3N1CN(c1ccc(C(=O)N[C@@H](CCC(=O)O)C(=O)O)cc1)C2 (stereo partly drawn) [N^5, N^10-methylene-6-[^3 H]-THF]
- effect on inhibition of RT [5]: no significant inhibition of the RT

Molecule: C[S+](CC[C@H](N)C(=O)O)C[C@H]1O[C@@H](n2cnc3c(N)ncnc32)[C@H](O)[C@@H]1O (stereo partly drawn) [SAM ts HSO4 H2 SO4]
- IC50 [10]: 250000 to 501000 nM
- Km [1]: 0.51 ± 0.02 µM
- kcat [1]: 0.333 s⁻¹ and 0.3 s⁻¹
- selectivity ratio [4]: 2.4

Molecule: Nc1ccn([C@H]2CC[C@@H](CO)O2)c(=O)n1 [ddC]
- side effects upon prolonged administration [8]: peripheral neuropathological effects

Molecule: (+)-SAM-3'-azido-2',3'-dideoxythymidine complex [SAM/AZT]
- maximum inhibition ([11]; inhibition of the cytotoxic effect): 100%
- IC50 ([11]; p24 production, read-out: IC50, inhibition of p24 production): 10 nM
- inhibitory constant Ki(1), at 50% inhibition [6, 20]: ≈ 0.9 ng/mL
- inhibitory constant Ki(2), at 50% inhibition [6, 20]: ≈ 12.5 μg/mL
- Ki (first, low) [6, 21]: 0.0005 to 0.0008 µg/mL
- Ki (second, high) [6, 21]: ~10 µg/mL
- Ki (first, low) ([6]; ionic strength 0.075 M): 0.0006 to 0.0008 µg/mL
- Ki (second, high) ([6]; ionic strength 0.075 M): 8 to 10 µg/mL
- 50% cytotoxicity ([2]; MTT, as mass concentration of complex): ~15.5 µg/mL
- CC50 ([2]; read-out: 50% cytotoxicity, MTT): 250000 nM
- hygroscopicity [12]: hygroscopic
- accumulation / conversion to triphosphate [13]: does not accumulate, but being readily converted to the triphosphate derivative
- toxicity for bone marrow stem cells [14]: less toxic than AZT
- AZT level (almost 50% of that in plasma) [9, 22]: 0.25 µg/mL
- SAM level [9, 22]: 600 ng/mL
- pharmacokinetic behaviour ([9]; HIV patients): lower elimination rate for SAM
- dose reduction of AZT ([9]; administered as complex with SAM): approx. 30%
- increase of SAM and AZT levels in CSF and plasma ([9]; approved dose 250 mg AZT at 4 h intervals): 25-30%
- AZT level in plasma ([9]; complex: 400 mg SAM equivalent 250 mg AZT): 0.543 µg/mL
- half-life of SAM ([15]; from AZT-SAM complex): more than 10 h
- half-life of SAM, average ([15]; from AZT-SAM complex): 12 h
- half-life of AZT ([15]; from the complex, depends on load): 2 to 3 h
- cytokine biosynthesis (IL-β, IL-2) [16]: enhanced significantly
- increase of the cell toxicity ([17]; SAM-AZT complex compared with SAM alone): approx. 35%
- cell toxicity with respect to AZT alone ([17]; vs AZT alone): considerable of reduction of cell toxicity
- toxicity/inhibition of mitochondrial DNA replication [18]: less toxic as well as inhibitory to mitochondrial DNA replication
